Results published in patent US8758782B2, “Excipient preservatives and pharmaceutical compositions comprised thereof” (Galderma Research & Development, priority 2007, dated 2014).

Tests used:
[1] = tested on: Staphylococcus aureus, reference ATCC 6538; assay: Preservative Efficacy Test (PET), Staphylococcus aureus; format: cell-based; design: key to Gram+ bacterium, Staphylococcus aureus: −: No European pharmacopoeia criterion or USP criterion is met; +: for the coli: the USP criteria are met; ++: the European pharmacopoeia criteria A are met; details: additive in standard emulsion
Description: (§1) A particular problem that must be solved by the invention is that of effectively protecting a pharmaceutical topical composition while at the same time meeting the criteria required by the European and U.S. pharmacopoeias. This is because, since the purpose of the pharmaceutical composition is to become a pharmaceutical product with a marketing authorization, it is imperative for the composition according to the invention to meet these criteria. In order to verify this point and to determine the antimicrobial action of the various mixtures of excipients according to the invention, a test protocol, known as the PET (Preservative Efficacy Test), exists. The PET comprises artificially inoculating the compositions with a known number of microorganisms, and then determining the decrease in the latter in the compositions tested, at given times. The protocol of this test is set up in order to abide by the recommendations of the European and U.S. pharmacopoeias. […] The mixture of excipients as preservatives, described herein, should therefore meet the criteria of these pharmacopoeias in the PET. This test comprises artificially contaminating aliquots of formulation by means of a calibrated inoculum of specific microorganisms and incubating the same at precise temperatures. Samples are taken from the contaminated aliquots at given time intervals in order to count the microorganisms. Bacteria: • Pseudomonas aeruginosa, reference ATCC 9027; NCIMB 8626; CIP 82.118. • Staphylococcus aureus, reference ATCC 6538; NCTC 10788; NCIMB 9518; CIP 4.83. Bacteria: • Escherichia coli, reference ATCC 8739. • Pseudomonas aeruginosa, reference ATCC 9027. • Staphylococcus aureus, reference ATCC 6538.

[2] = tested on: Candida albicans, reference ATCC 10231; assay: Preservative Efficacy Test (PET), Candida albicans; format: cell-based; design: key to Yeast, Candida albicans: −: No European pharmacopoeia criterion or USP criterion is met; +: for the coli: the USP criteria are met; ++: the European pharmacopoeia criteria A are met; details: additive in standard emulsion
Description: (§2) A particular problem that must be solved by the invention is that of effectively protecting a pharmaceutical topical composition while at the same time meeting the criteria required by the European and U.S. pharmacopoeias. This is because, since the purpose of the pharmaceutical composition is to become a pharmaceutical product with a marketing authorization, it is imperative for the composition according to the invention to meet these criteria. In order to verify this point and to determine the antimicrobial action of the various mixtures of excipients according to the invention, a test protocol, known as the PET (Preservative Efficacy Test), exists. The PET comprises artificially inoculating the compositions with a known number of microorganisms, and then determining the decrease in the latter in the compositions tested, at given times. The protocol of this test is set up in order to abide by the recommendations of the European and U.S. pharmacopoeias. […] The mixture of excipients as preservatives, described herein, should therefore meet the criteria of these pharmacopoeias in the PET. This test comprises artificially contaminating aliquots of formulation by means of a calibrated inoculum of specific microorganisms and incubating the same at precise temperatures. Samples are taken from the contaminated aliquots at given time intervals in order to count the microorganisms. Fungi: • Candida albicans, reference ATCC 10231; NCPF 3179; IP 48.72. • Aspergillus niger, reference ATCC 16404; IMI 149007; IP 1431.83. Fungi: • Candida albicans, reference ATCC 10231. • Aspergillus niger, reference ATCC 16404.

[3] = tested on: Aspergillus niger, reference ATCC 16404; assay: Preservative Efficacy Test (PET), Aspergillus niger; format: cell-based; design: key to Moulds, Aspergillus Niger: −: No European pharmacopoeia criterion or USP criterion is met; +: for the coli: the USP criteria are met; ++: the European pharmacopoeia criteria A are met; details: for Moulds, Aspergillus Niger: additive in standard emulsion at its given % (EDTA 0.15, citric acid 2, sodium ascorbate 2, tocopherol 0.05, BHT 1, propyl gallate 0.1, ascorbyl palmitate 1)
Description: as §2

[4] = tested on: Pseudomonas aeruginosa, reference ATCC 9027; assay: Preservative Efficacy Test (PET), Pseudomonas aeruginosa; format: cell-based; design: key to Gram− bacterium, Pseudomonas aeruginosa: −: No European pharmacopoeia criterion or USP criterion is met; +: for the coli: the USP criteria are met; ++: the European pharmacopoeia criteria A are met; details: additive in standard emulsion
Description: as §1

[5] = tested on: Bacteria and fungi (Escherichia coli, Pseudomonas aeruginosa, Staphylococcus aureus, Candida albicans, Aspergillus niger); assay: PET, overall compliance with European and U.S. pharmacopoeia criteria; format: cell-based; details: for Efficacy on the microorganisms as a whole / spectrum of efficacy: additive in standard emulsion; for USP criteria / Bacteria: European pharmacopoeia criteria: 30% by mass in an aqueous solution, without ethanol; for Bacteria: European pharmacopoeia criteria: bacteria only; for Solutions providing antimicrobial protection, Pharma Europe: EtOH concentration / Solutions providing antimicrobial protection, Pharma USP: EtOH concentration: ethanol combined with the humectant; for Solutions providing antimicrobial protection, Pharma Europe: EtOH concentration / Solutions providing antimicrobial protection, Pharma USP: EtOH concentration / Solutions providing antimicrobial protection, Pharma Europe: humectant concentration / Solutions providing antimicrobial protection, Pharma USP: humectant concentration: lotion-type aqueous solution, no preservative; for Solutions providing antimicrobial protection, Pharma Europe: humectant concentration / Solutions providing antimicrobial protection, Pharma USP: humectant concentration: humectant combined with ethanol; for Ethanol concentration to meet European pharmacopoeia criteria A: reduced from 25%; for Ethanol concentration to meet the USP criteria: reduced from 15%
Description: A particular problem that must be solved by the invention is that of effectively protecting a pharmaceutical topical composition while at the same time meeting the criteria required by the European and U.S. pharmacopoeias. This is because, since the purpose of the pharmaceutical composition is to become a pharmaceutical product with a marketing authorization, it is imperative for the composition according to the invention to meet these criteria. In order to verify this point and to determine the antimicrobial action of the various mixtures of excipients according to the invention, a test protocol, known as the PET (Preservative Efficacy Test), exists. The PET comprises artificially inoculating the compositions with a known number of microorganisms, and then determining the decrease in the latter in the compositions tested, at given times. The protocol of this test is set up in order to abide by the recommendations of the European and U.S. pharmacopoeias. The test and also the recommendations of the European and U.S. pharmacopoeias are described in Example 1 to follow. The mixture of excipients as preservatives, described herein, should therefore meet the criteria of these pharmacopoeias in the PET.
This test comprises artificially contaminating aliquots of formulation by means of a calibrated inoculum of specific microorganisms and incubating the same at precise temperatures. Samples are taken from the contaminated aliquots at given time intervals in order to count the microorganisms.
It also makes it obligatory to study the reductions in population of the microorganisms introduced into the formulation according to two acceptability criteria.
Since the A criteria are the most strict, it are […] generally required that they be met.
In justified cases, when the A criteria cannot be complied with, for example owing to an increase in the risk of adverse reactions, the B criteria, which are less drastic, apply.
NI (Non-Increase) signifies that there must not be an increase in the number of microorganisms.
It imposes logarithmic reductions in the population of microorganisms which are different than that of the European pharmacopoeia.

[6] = tested on: Escherichia coli, reference ATCC 8739; assay: Preservative Efficacy Test (PET), Escherichia coli; format: cell-based; design: key to Gram− bacterium, Esoherichia coli: −: No European pharmacopoeia criterion or USP criterion is met; +: for the coli: the USP criteria are met; ++: the European pharmacopoeia criteria A are met; details: additive in standard emulsion
Description: as §1, with “•” for “• Pseudomonas aeruginosa, reference ATCC 9027; NCIMB 8626; CIP 82.118. • Staphylococcus aureus, reference ATCC 6538; NCTC 10788; NCIMB 9518; CIP 4.83. Bacteria: •”

microorganisms = details: J. J. Kabara; cited from earlier work
Candida albicans = details: cited from earlier work
Aspergillus niger = details: cited from earlier work

CCCCCCCCCCCCCCCC(=O)OC[C@H](O)[C@H]1OC(=O)C(O)=C1O [Ascorbyl palmitate]
Gram+ bacterium, Staphylococcus aureus [1]: ++ | Yeast, Candida albicans [2]: − | Moulds, Aspergillus Niger [3]: − | Gram− bacterium, Pseudomonas aeruginosa [4]: ++ | Efficacy on the microorganisms as a whole / spectrum of efficacy [5]: bactericidal | Gram− bacterium, Esoherichia coli [6]: +

Cc1cc(C(C)(C)C)c(O)c(C(C)(C)C)c1 [BHT, butylhydroxytoluene]
Gram+ bacterium, Staphylococcus aureus [1]: − | Yeast, Candida albicans [2]: − | Moulds, Aspergillus Niger [3]: − | Gram− bacterium, Pseudomonas aeruginosa [4]: − | Gram− bacterium, Esoherichia coli [6]: −

O.O.O=C([O-])CN(CCN(CC(=O)O)CC(=O)O)CC(=O)[O-].[Na+].[Na+] [EDTA, Disodium EDTA Dihydrate]
Gram+ bacterium, Staphylococcus aureus [1]: − | Yeast, Candida albicans [2]: − | Moulds, Aspergillus Niger [3]: − | Gram− bacterium, Pseudomonas aeruginosa [4]: ++ | Inhibition of Pseudomonas aeruginosa, criteria met [4]: meeting European pharmacopoeia criteria A | Gram− bacterium, Esoherichia coli [6]: −

CC(O)CO (centres unmarked) [PG, Propylene glycol]
Action on fungi, in particular Aspergillus niger ([3]; humectant alone, without ethanol): does not ensure a decrease in these microorganisms | USP criteria [5]: makes it possible to meet | Bacteria: European pharmacopoeia criteria [5]: meeting European pharmacopoeia criteria A | Solutions providing antimicrobial protection, Pharma Europe: EtOH concentration [5]: starting from 15% | Solutions providing antimicrobial protection, Pharma USP: EtOH concentration [5]: starting from 0% EtOH | Solutions providing antimicrobial protection, Pharma Europe: humectant concentration [5]: starting from 5% PG | Solutions providing antimicrobial protection, Pharma USP: humectant concentration [5]: starting from 30% PG | Ethanol concentration to meet European pharmacopoeia criteria A ([5]; with 10% of PG): 15%

CCCOC(=O)c1cc(O)c(O)c(O)c1 [Propyl gallate]
Gram+ bacterium, Staphylococcus aureus [1]: − | Yeast, Candida albicans [2]: − | Moulds, Aspergillus Niger [3]: − | Gram− bacterium, Pseudomonas aeruginosa [4]: ++ | Inhibition of Pseudomonas aeruginosa, criteria met [4]: meeting European pharmacopoeia criteria A | Gram− bacterium, Esoherichia coli [6]: −

O=C1O[C@H]([C@@H](O)CO)C([O-])=C1O.[Na+] [Sodium ascorbate]
Action on Staphylococcus aureus, criteria met [1]: meeting European pharmacopoeia criteria A | Gram+ bacterium, Staphylococcus aureus [1]: ++ | Yeast, Candida albicans [2]: − | Moulds, Aspergillus Niger [3]: − | Gram− bacterium, Pseudomonas aeruginosa [4]: − | Action on Escherichia coli, criteria met [6]: meeting the USP criteria | Gram− bacterium, Esoherichia coli [6]: +

CCO [ethanol]
Ethanol concentration starting from which proliferation of microorganisms can be prevented (microorganisms): ≥ 25 % (v/v) | Ethanol concentration in the aqueous mixture from which the bactericidal action meets European pharmacopoeia criteria A and the USP criteria ([5]; ethanol/water, bacteria): ≥ 15% | Ethanol concentration at which the fungicidal action meets the requirements for all the pharmacopoeias ([5]; ethanol/water, fungi): 25%

OCC(O)CO [glycerol]
USP criteria [5]: does not meet | Bacteria: European pharmacopoeia criteria [5]: meet only European pharmacopoeia criteria B for bacteria | Solutions providing antimicrobial protection, Pharma Europe: EtOH concentration [5]: starting from 15% | Solutions providing antimicrobial protection, Pharma USP: EtOH concentration [5]: starting from 5% EtOH | Solutions providing antimicrobial protection, Pharma Europe: humectant concentration [5]: starting from 5% | Solutions providing antimicrobial protection, Pharma USP: humectant concentration [5]: starting from 10% | Ethanol concentration to meet European pharmacopoeia criteria A ([5]; with 5% by mass of glycerol): 15% | Ethanol concentration to meet the USP criteria ([5]; with 10% by mass of glycerol): 5%

COC(=O)c1ccc(O)cc1 [methylparaben]
Concentration that makes it possible to inhibit Candida albicans (Candida albicans): 1000 ppm | Concentration that makes it possible to inhibit Aspergillus niger (Aspergillus niger): 1000 ppm

CCCOC(=O)c1ccc(O)cc1 [propylparaben]
Concentration that makes it possible to inhibit Candida albicans (Candida albicans): 250 ppm | Concentration that makes it possible to inhibit Aspergillus niger (Aspergillus niger): 250 ppm

Polyethylene Glycol 400 [PEG 400]
Solutions providing antimicrobial protection, Pharma Europe: EtOH concentration [5]: starting from 10% | Solutions providing antimicrobial protection, Pharma USP: EtOH concentration [5]: starting from 5% EtOH | Solutions providing antimicrobial protection, Pharma Europe: humectant concentration [5]: starting from 20% | Solutions providing antimicrobial protection, Pharma USP: humectant concentration [5]: starting from 20% PEG | Ethanol concentration to meet the USP criteria ([5]; with 20% by mass of PEG 400): 5% | Ethanol concentration to meet European pharmacopoeia criteria A ([5]; with 20% by mass of PEG 400): 10%

Tocopherol
Gram+ bacterium, Staphylococcus aureus [1]: − | Yeast, Candida albicans [2]: − | Moulds, Aspergillus Niger [3]: − | Gram− bacterium, Pseudomonas aeruginosa [4]: − | Efficacy on the microorganisms as a whole / spectrum of efficacy [5]: do not have a significant efficacy | Gram− bacterium, Esoherichia coli [6]: −
